# Assay results as given in patent US8362051B2, “Mold-resistant wallboard” (Rohm and Haas Company, priority 2007, dated 2013).
# Tests used:
# Format in all cases: cell-based
# mold [1] = assay: TAPPI T-487 test on surface-treated paper; set-up: key to TAPPI T-487 rating Week 1 / TAPPI T-487 rating Week 2 / TAPPI T-487 rating Week 3: 100% mold coverage; 1: 90% mold coverage; 2: 80% mold coverage; 3: 70% mold coverage; 4: 60% mold coverage; 50% mold coverage; 6: 40% mold coverage; 7: 30% mold coverage; 8: 20% mold coverage; 9: 10% mold coverage; 10: no mold growth; conditions: surface treatment; for TAPPI T-487 rating Week 1 / TAPPI T-487 rating Week 2 / TAPPI T-487 rating Week 3: average of three sheets
# Protocol: The papers of this example were prepared via surface treatment. The values in Table 3 below represent the average concentration of active biocide in the paper and the average […]-487 test rating based on three paper sheets.
# mold [2] = assay: ASTM 3273 fungal growth test on paper sheets, biocide added to pulp slurry; set-up: key to ASTM 3273 rating Week 1: 0: 100% mold coverage; 1: 90%; 2: 80%; 3: 70%; 4: 60%; 5: 50%; 6: 40%; 7: 30%; 8: 20%; 9: 10%; 10: no mold growth coverage; 8: 20% mold coverage; 9: 10% mold coverage; 10: no mold growth; key to ASTM 3273 rating Week 2 / ASTM 3273 rating Week 3 / ASTM 3273 rating Week 4: 100% mold coverage; 1: 90% mold coverage; 2: 80% mold coverage; 3: 70% mold coverage; 4: 60% mold coverage; 50% mold coverage; 6: 40% mold coverage; 7: 30% mold coverage; 8: 20% mold coverage; 9: 10% mold coverage; 10: no mold growth; conditions: average of three sheets
# Protocol: (§1) The biocides can be evaluated in the following examples by adding to a 0.4 wt % pulp slurry in water (100% recycle) typically used for gypsum wallboard facing paper. The slurry is filtered through a screen to drain the water from the stock and the resulting paper mat is blotted, couched, and dried to form a paper sheet with a basis weight of approximately 40 lb/1000 ft2. Three sheets per condition are prepared. High Performance Liquid Chromatography (HPLC) is used to determine the amount of biocide present in each sheet. The paper sheets are evaluated for fungal growth via ASTM 3273, currently the industry standard for mold-resistant wallboard, as well as the standard TAPPI T-487 fungal efficacy test.
# (§2) The values in Tables 1 and 2 below represent data from samples made substantially according to the preceding protocol. The average concentration of active biocide in the paper and the average test rating based on three paper sheets are shown. Based on tables 1 and 2, approximately 4-4.5 times more DIMTS active was needed in the paper sheet than OIT before no mold growth was observed throughout the entire testing period.
# (§3) For ASTM 3273, a 4-week test, the following rating scale applies: • 0—100% mold coverage • 1—90% mold coverage • 2—80% mold coverage • 3—70% mold coverage • 4—60% mold coverage • 5—50% mold coverage • 6—40% mold coverage • 7—30% mold coverage • 8—20% mold coverage • 9—10% mold coverage • 10—no mold growth For TAPPI T-487, a 3-week test, the following rating scale applies: • 0—no mold growth • 1—25% mold coverage • 2—50% mold coverage • 3—75% mold coverage • 4—100% mold coverage
# mold [3] = assay: TAPPI T-487 fungal efficacy test on paper sheets, biocide added to pulp slurry; set-up: key: coverage; 8: 20% mold coverage; 9: 10% mold coverage; 10: no mold growth; conditions: average of three sheets
# Protocol: as §1, §2, §3
molecule,measurement,setting,value
"CCCCNC(=O)OCC#CI [IPBC, 3-iodo-2-propynyl-butylcarbamate]",TAPPI T-487 rating Week 1,mold [1]; 70 ppm in paper,0
same,TAPPI T-487 rating Week 2,mold [1]; 70 ppm in paper,0
same,TAPPI T-487 rating Week 3,mold [1]; 70 ppm in paper,0
same,TAPPI T-487 rating Week 1,mold [1]; 688 ppm in paper,0
same,TAPPI T-487 rating Week 2,mold [1]; 688 ppm in paper,0
same,TAPPI T-487 rating Week 3,mold [1]; 688 ppm in paper,0
same,TAPPI T-487 rating Week 1,mold [1]; 6768 ppm in paper,0
same,TAPPI T-487 rating Week 2,mold [1]; 6768 ppm in paper,0
same,TAPPI T-487 rating Week 3,mold [1]; 6768 ppm in paper,0
same,effectiveness at controlling mold growth versus comparators,mold [1]; based on Table 3,"more effective at controlling mold growth at lower dosages than DIMTS, ZPT, and TBZ"
"CCCCCCCCn1sccc1=O [OIT, octylisothiazolinone]",ASTM 3273 rating Week 1,mold [2]; 113 ppm in paper sheet,10
same,ASTM 3273 rating Week 2,mold [2]; 113 ppm in paper sheet,10
same,ASTM 3273 rating Week 3,mold [2]; 113 ppm in paper sheet,10
same,ASTM 3273 rating Week 4,mold [2]; 113 ppm in paper sheet,10
same,ASTM 3273 rating Week 1,mold [2]; 174 ppm in paper sheet,10
same,ASTM 3273 rating Week 2,mold [2]; 174 ppm in paper sheet,10
same,ASTM 3273 rating Week 3,mold [2]; 174 ppm in paper sheet,10
same,ASTM 3273 rating Week 4,mold [2]; 174 ppm in paper sheet,10
same,ASTM 3273 rating Week 1,mold [2]; 283 ppm in paper sheet,10
same,ASTM 3273 rating Week 2,mold [2]; 283 ppm in paper sheet,10
same,ASTM 3273 rating Week 3,mold [2]; 283 ppm in paper sheet,10
same,ASTM 3273 rating Week 4,mold [2]; 283 ppm in paper sheet,10
same,TAPPI T-487 rating Week 1,mold [3]; 181 ppm in paper sheet,0
same,TAPPI T-487 rating Week 2,mold [3]; 181 ppm in paper sheet,0
same,TAPPI T-487 rating Week 3,mold [3]; 181 ppm in paper sheet,0
same,TAPPI T-487 rating Week 1,mold [3]; 309 ppm in paper sheet,0
same,TAPPI T-487 rating Week 2,mold [3]; 309 ppm in paper sheet,0
same,TAPPI T-487 rating Week 3,mold [3]; 309 ppm in paper sheet,0
same,TAPPI T-487 rating Week 1,mold [3]; 492 ppm in paper sheet,0
same,TAPPI T-487 rating Week 2,mold [3]; 492 ppm in paper sheet,0
same,TAPPI T-487 rating Week 3,mold [3]; 492 ppm in paper sheet,0
"c1ccc2[nH]c(-c3cscn3)nc2c1 [TBZ, Thiabendazole]",TAPPI T-487 rating Week 1,mold [1]; 31 ppm in paper,4 (100% mold coverage)
same,TAPPI T-487 rating Week 2,mold [1]; 31 ppm in paper,4 (100% mold coverage)
same,TAPPI T-487 rating Week 3,mold [1]; 31 ppm in paper,4 (100% mold coverage)
same,TAPPI T-487 rating Week 1,mold [1]; 229 ppm in paper,2 (50% mold coverage)
same,TAPPI T-487 rating Week 2,mold [1]; 229 ppm in paper,4 (100% mold coverage)
same,TAPPI T-487 rating Week 3,mold [1]; 229 ppm in paper,4 (100% mold coverage)
same,TAPPI T-487 rating Week 1,mold [1]; 4107 ppm in paper,0
same,TAPPI T-487 rating Week 2,mold [1]; 4107 ppm in paper,0
same,TAPPI T-487 rating Week 3,mold [1]; 4107 ppm in paper,0
zinc pyrithione [ZPT],TAPPI T-487 rating Week 1,mold [1]; 60 ppm in paper,4 (100% mold coverage)
same,TAPPI T-487 rating Week 2,mold [1]; 60 ppm in paper,4 (100% mold coverage)
same,TAPPI T-487 rating Week 3,mold [1]; 60 ppm in paper,4 (100% mold coverage)
same,TAPPI T-487 rating Week 1,mold [1]; 486 ppm in paper,1 (25% mold coverage)
same,TAPPI T-487 rating Week 2,mold [1]; 486 ppm in paper,4 (100% mold coverage)
same,TAPPI T-487 rating Week 3,mold [1]; 486 ppm in paper,4 (100% mold coverage)
same,TAPPI T-487 rating Week 1,mold [1]; 5408 ppm in paper,0
same,TAPPI T-487 rating Week 2,mold [1]; 5408 ppm in paper,0
same,TAPPI T-487 rating Week 3,mold [1]; 5408 ppm in paper,0
